Assay results as given in PMC3882240, “Matrix Stiffness Affects Endocytic Uptake of MK2-Inhibitor Peptides” (PLoS ONE, 2014).
Where a SMILES comes first, the peptide text is derived from it. Where no end group is shown, it is not given here. The star is where a group is joined. FITC = O=C1OC2(c3ccc(O)cc3Oc3cc(O)ccc32)c2ccc(NC(=S)*)cc21; Ahx = NCCCCCC(=O)O

Tested on: mesothelial cells
Experiment: Intracellular uptake of FITC-YARA by flow cytometry / confocal imaging
Format: cell-based, Human
Procedure: Flow cytometry was used to characterize the uptake of FITC-YARA. Mesothelial cells were seeded on gel substrates or tissue culture plastic, and cultured as previously described. After treating overnight with serum free media, cells were treated with various concentrations of FITC-YARA (refer to figures) or PBS (untreated control) in serum free media and incubated for 24 hours. To collect cells for flow cytometry, cells were washed with PBS, trypsin treated for 5–10 minutes, neutralized with serum-containing media, collected in a 15-ml conical tube and spun down at 300 × g for seven minutes. Cells were washed with PBS, quenched with trypan blue, then washed four to five times with PBS. Once excess trypan blue was washed away, cells were fixed using 1X cytofix buffer (BD). Samples were stored protected from light at 4°C until samples were run on the Cytomics FC500 MPL flow cytometer (Beckman Coulter) equipped with MXP Cytometry List Mode Data Acquisition and Analysis Software. Data acquisition required 10,000 events. Figures were obtained using Flow Jo software.
To characterize uptake on soft substrates, cells were pretreated with 10 mM methyl-β-cyclodextrin (MβCD) for 1 hour or incubated at 4°C for 30 minutes, then treated with 3 µM YARA for 1 hour. Cells were then collected and assayed by flow cytometry as previously described.
To elucidate the role of the cytoskeleton in the uptake of FITC-YARA, mesothelial cells were treated with various chemicals known to alter the cytoskeleton. Cytochalasin D (Sigma; 5 µg/ml) was used as an inhibitor of stress fiber formation on tissue culture plastic, lysophosphatidic acid (LPA; Sigma; 1,5,and 25 µg/ml ) was used to induce stress fiber formation on soft substrates and tissue culture plastic, and nocodozole (Calbiochem; 1 and 10 µg/ml) was used to inhibit microtubule polymerization on soft substrates. Cells were seeded and grown on substrates or tissue culture plastic as previously described. Following one hour pretreatment with the various inhibitors, cells were incubated with FITC-YARA for 1 hour then processed for flow cytometry.
For confocal images, cells were treated with FITC-YARA for 1 hour, then washed five times with media before imaging live using an FV1000 confocal microscopy equipped with ASW-10 software (Olympus).

| Compound | effect of cytochalasin D (actin filament disruption) on peptide uptake (3 µM, TCPS, 5 µg/ml cytochalasin D 1 h pretreatment, peptide 1 h, flow cytometry) | effect of nocodazole (microtubule polymerization inhibition) on uptake (3 µM, soft substrate, 21,000 cells/cm^2, 1 or 10 µg/ml nocodazole 1 h pretreatment, peptide 1 h, flow cytometry, dose dependent) | effect of LPA (actin filament induction) on peptide uptake (3 µM, soft substrate, 21,000 cells/cm^2, 5 or 25 µg/ml LPA 1 h pretreatment, peptide 1 h, flow cytometry) | uptake on soft substrates compared to tissue culture plastic at high seeding density (3 µM FITC-YARA, 71,000 cells/cm^2, flow cytometry) | uptake on soft substrates compared to tissue culture plastic (3 µM FITC-YARA, 24 h, 21,000 cells/cm^2, serum-free media, flow cytometry, trypan blue quench) | intracellular uptake compared to untreated controls (all substrates, 3 µM FITC-YARA, 24 h, flow cytometry) | uptake on soft substrates with MβCD (soft substrate, 10 mM methyl-β-cyclodextrin pretreatment 1 h then 3 µM peptide 1 h, flow cytometry) | uptake on soft substrates at 4°C (soft substrate, 30 min at 4°C then 3 µM peptide 1 h, flow cytometry) |
| --- | --- | --- | --- | --- | --- | --- | --- | --- |
| YARAAARQARAKALARQLGVAA-NH2 [YARA] | no effect on peptide uptake | pronounced increase in YARA uptake | no effect on peptide uptake |  |  |  |  |  |
| CC(C)C[C@H](NC(=O)[C@H](C)NC(=O)[C@H](CCCCN)NC(=O)[C@H](C)NC(=O)[C@H](CCCNC(=N)N)NC(=O)[C@H](C)NC(=O)[C@H](CCC(N)=O)NC(=O)[C@H](CCCNC(=N)N)NC(=O)[C@H](C)NC(=O)[C@H](C)NC(=O)[C@H](C)NC(=O)[C@H](CCCNC(=N)N)NC(=O)[C@H](C)NC(=O)[C@H](Cc1ccc(O)cc1)NC(=O)CCCCCNC(=S)Nc1ccc2c(c1)C(=O)OC21c2ccc(O)cc2Oc2cc(O)ccc21)C(=O)N[C@@H](C)C(=O)N[C@@H](CCCNC(=N)N)C(=O)N[C@@H](CCC(N)=O)C(=O)N[C@@H](CC(C)C)C(=O)NCC(=O)N[C@H](C(=O)N[C@@H](C)C(=O)N[C@@H](C)C(N)=O)C(C)C [FITC-YARA] ({FITC-Ahx}-YARAAARQARAKALARQLGVAA-NH2) |  |  |  | decreased the amount of FITC-YARA that was endocytosed | approximately double the uptake | increased intracellular uptake compared to untreated controls | inhibited with MβCD pretreatment | inhibited at low temperatures |
